#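 Values below derive from 48-hour exposures of cells grown in 96-well plates, with endpoints linearly interpolated between the two concentrations bracketing the appropriate inhibition level. Here, GI50 denotes the concentration required for 50% inhibition of growth. The concentration for full growth arrest is given as TGI.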
# Tests used:
# Assay in all cases: inhibition of tumour cell growth, NCI panel, 48 h
# 786-0 renal = test system: 786-0 renal
# COLO 205 colon = test system: COLO 205 colon
# HOP-92 NSCLC = test system: HOP-92 NSCLC
# KM20L2 colon = test system: KM20L2 colon
# LXFL 529 NSCLC = test system: LXFL 529 NSCLC
# RPMI-8226 leukemia = test system: RPMI-8226 leukemia
# UACC-257 melanoma = test system: UACC-257 melanoma
# DU-145 prostate = test system: DU-145 prostate
# MCF7 breast = test system: MCF7 breast
# MDA-MB-231 breast = test system: MDA-MB-231 breast
SMILES,GI50 (786-0 renal),TGI (786-0 renal),GI50 (COLO 205 colon),TGI (COLO 205 colon),GI50 (HOP-92 NSCLC),TGI (HOP-92 NSCLC),GI50 (KM20L2 colon),TGI (KM20L2 colon),GI50 (LXFL 529 NSCLC),TGI (LXFL 529 NSCLC),GI50 (RPMI-8226 leukemia),TGI (RPMI-8226 leukemia),GI50 (UACC-257 melanoma),TGI (UACC-257 melanoma),GI50 (DU-145 prostate),TGI (DU-145 prostate),GI50 (MCF7 breast),TGI (MCF7 breast),GI50 (MDA-MB-231 breast),TGI (MDA-MB-231 breast)
[Cl-].[Gd+3].[O-]/N=C(\c1ccccc1)c1ccccn1.[O-]/N=C(\c1ccccc1)c1ccccn1.[O-]/N=C(\c1ccccc1)c1ccccn1,57.8 µM,> 100 µM,47.2 µM,> 100 µM,> 100 µM,> 100 µM,39.7 µM,> 100 µM,50.1 µM,> 100 µM,> 100 µM,> 100 µM,86.5 µM,> 100 µM,,,,,,
COC(=O)CC1CC2(C(=O)OC)c3[nH]c4ccccc4c3CCN2C1=O (centres undefined),,> 100 µM,,> 100 µM,,> 100 µM,,> 100 µM,,> 100 µM,,,,> 100 µM,,,,,,
CC1=CCN(c2ccccn2)OC1c1ccccc1 (centres undefined),,> 100 µM,,> 100 µM,,,,> 100 µM,,> 100 µM,,> 100 µM,,> 100 µM,,,,,,
Nc1nc(=S)[nH]c(C(=O)Nc2nccs2)c1-c1ccccc1,,> 100 µM,,> 100 µM,,> 100 µM,,> 100 µM,,> 100 µM,,> 100 µM,,> 100 µM,,,,,,
O=C1CNN=C(Cn2nc(-c3ccccc3)c3ccccc3c2=O)N1,,> 100 µM,,> 100 µM,,> 100 µM,,,,> 100 µM,,> 100 µM,,> 100 µM,,,,,,
O=C(/C=C(\[O-])c1ccccc1)CCCCCCC(=O)/C=C(\[O-])c1ccccc1.O=C(/C=C(\[O-])c1ccccc1)CCCCCCC(=O)/C=C(\[O-])c1ccccc1.O=C(/C=C(\[O-])c1ccccc1)CCCCCCC(=O)/C=C(\[O-])c1ccccc1.[Nd+3].[Nd+3],> 50 µM,> 50 µM,> 50 µM,> 50 µM,43.8 µM,> 50 µM,> 50 µM,> 50 µM,,,43.2 µM,> 50 µM,> 50 µM,> 50 µM,,,,,,
Nc1ccc(C(=O)/C=C/c2ccccc2O)cc1,,> 100 µM,,> 100 µM,,,,> 100 µM,,> 100 µM,,,,> 100 µM,,,,,,
COCC1N=C(c2cc(OC)c(OC)c(OC)c2-c2cc3c(cc2[C@H](C)O)OCO3)O[C@H]1c1ccccc1 (some centres undefined),,> 100 µM,,85.2 µM,,86.4 µM,,> 100 µM,,> 100 µM,,> 100 µM,,,,,,,,
CC1=C2[C@@H](CC1)[C@]1(C)O[C@@](C3CC3)(C[C@H]1OC(=O)CO)[C@H]2OC(=O)/C=C/c1ccccc1,3.19 µM,25.7 µM,17.9 µM,35.7 µM,13.4 µM,26.7 µM,,,,,19.8 µM,54.4 µM,17.7 µM,32.9 µM,16.9 µM,30.9 µM,13 µM,31.3 µM,18.3 µM,37.6 µM
COc1cc(OC)cc(-c2ccc(-c3ccc(C(=N)N)cn3)s2)c1,1.98 µM,3.72 µM,2.11 µM,4.62 µM,1.7 µM,3.52 µM,,,,,2.46 µM,5.51 µM,2.29 µM,4.49 µM,1.79 µM,3.22 µM,1.77 µM,3.6 µM,1.79 µM,3.51 µM
O=c1cccccc1[O-].O=c1cccccc1[O-].O=c1cccccc1[O-].[Sm+3],,> 100 µM,,,,> 100 µM,15.4 µM,> 100 µM,,,,> 100 µM,,> 100 µM,,,,,,
COc1cc(/C=C\c2cc(OC)c(OC)c(OC)c2)cc(NS(=O)(=O)c2ccc(Cl)cc2)c1OC,0.666 µM,> 100 µM,0.253 µM,0.652 µM,0.72 µM,72.3 µM,,,,,0.387 µM,33.2 µM,12.5 µM,> 100 µM,0.507 µM,> 100 µM,0.375 µM,> 100 µM,1.16 µM,> 100 µM
CCN(CC)CCOc1ccc2c(C)c(C(=O)OC)oc2c1C(=O)/C=C/c1ccc(OC)cc1,16.6 µM,> 45.7 µM,4.03 µM,,0.551 µM,2.77 µM,,,,,1.58 µM,4.42 µM,19.8 µM,36.9 µM,18.5 µM,34.7 µM,2.76 µM,> 22.7 µM,3.79 µM,11.2 µM
O=c1nc2[nH]c3c(-c4n[nH]c(=O)[nH]c4=O)cccc3c2n[nH]1,> 100 µM,> 100 µM,> 100 µM,> 100 µM,78.1 µM,> 100 µM,,,,,> 100 µM,> 100 µM,> 100 µM,> 100 µM,> 100 µM,> 100 µM,> 100 µM,> 100 µM,> 100 µM,> 100 µM
Cc1ccc(S(=O)(=O)N2CCC(C(=O)O)(c3ccccc3)CC2)cc1,,> 100 µM,,> 100 µM,,> 100 µM,,,,,,> 100 µM,,> 100 µM,,> 100 µM,,> 100 µM,,> 100 µM
NC(N)=N/N=C/c1c(-c2ccncc2)nc2sc(Cl)cn12,6.63 µM,17 µM,4.21 µM,,1.43 µM,4.63 µM,,,,,6.52 µM,21.1 µM,21.5 µM,40.6 µM,17.5 µM,33.3 µM,5.19 µM,> 94.2 µM,1.58 µM,3.6 µM
COc1cc(N(CCC#N)CCC#N)ccc1/C(N=Nc1ccc(C(=O)O)cc1)=N/NC(=O)c1cc(Br)ccc1O,97.8 µg/mL,> 150 µg/mL,43.3 µg/mL,140 µg/mL,> 150 µg/mL,> 150 µg/mL,,,,,127 µg/mL,> 150 µg/mL,> 150 µg/mL,> 150 µg/mL,> 150 µg/mL,> 150 µg/mL,57.3 µg/mL,> 150 µg/mL,72.7 µg/mL,> 150 µg/mL
CC(=O)[O-].[Mn+3].[O-]c1ccc(Cl)cc1C=NCCN=Cc1cc(Cl)ccc1[O-],> 100 µM,> 100 µM,,,,,,,> 100 µM,> 100 µM,,,> 100 µM,> 100 µM,,,,,,

SMILES,GI50 (786-0 renal),TGI (786-0 renal),GI50 (COLO 205 colon),TGI (COLO 205 colon),GI50 (HOP-92 NSCLC),TGI (HOP-92 NSCLC),GI50 (KM20L2 colon),TGI (KM20L2 colon),GI50 (LXFL 529 NSCLC),TGI (LXFL 529 NSCLC),GI50 (RPMI-8226 leukemia),TGI (RPMI-8226 leukemia),GI50 (UACC-257 melanoma),TGI (UACC-257 melanoma),GI50 (DU-145 prostate),TGI (DU-145 prostate),GI50 (MCF7 breast),TGI (MCF7 breast),GI50 (MDA-MB-231 breast),TGI (MDA-MB-231 breast)
C#CC#CC#CC#CC#CC#CC#CC#CC[C@@H]1OC[C@@H](COC(=O)O[C@@H](C(=O)O[C@H]2C[C@@]3(O)[C@@H](OC(=O)c4ccccc4)[C@@H]4[C@]5(OC(C)=O)CO[C@@H]5C[C@H](O)[C@@]4(C)C(=O)[C@H](OC(C)=O)C(=C2C)C3(C)C)[C@@H](NC(=O)c2ccccc2)c2ccccc2)O1,1.09 µM,> 33.3 µM,0.181 µM,> 33.3 µM,,> 33.3 µM,,,,,0.109 µM,> 33.3 µM,> 15.7 µM,> 33.3 µM,0.502 µM,> 33.3 µM,0.0872 µM,> 33.3 µM,0.65 µM,> 33.3 µM
COC(=O)c1ccc2[nH]c(O)c(C(=Nc3ccc(N(C)C(=O)CN4CCN(C)CC4)cc3)c3ccccc3)c2c1,1.07 µM,2.83 µM,0.7 µM,2.45 µM,9.78 µM,39.7 µM,,,,,1.92 µM,8.34 µM,2.24 µM,5 µM,1.27 µM,8.98 µM,0.603 µM,2.42 µM,1.28 µM,3.17 µM
COc1ccc2c(c1)[n+](=O)c(C(C)=O)c(C)n2[O-],,> 100 µM,,> 100 µM,,> 100 µM,,,,> 100 µM,,> 100 µM,,> 100 µM,,,,,,
O=C(C(=O)c1cc(Br)ccc1O)c1cc(Br)ccc1O,3.87 µM,13.7 µM,18.6 µM,44.5 µM,1.48 µM,5.58 µM,,,,,2.71 µM,88.2 µM,2.21 µM,8.43 µM,3.66 µM,18.5 µM,7.34 µM,> 100 µM,5.33 µM,23 µM
OCCCCC#Cc1ccccc1C#Cc1ccc(C(F)(F)F)cc1,4.72 µM,18.1 µM,17.4 µM,33 µM,18 µM,34.9 µM,,,,,19.9 µM,48.8 µM,14.9 µM,28.2 µM,15.8 µM,31.7 µM,33.3 µM,85.6 µM,18.6 µM,34 µM
COC(=O)c1sc(=NC(=S)N2CCCCC2)sc1C(=O)OC,,> 100 µM,,> 100 µM,,,,> 100 µM,,> 100 µM,,> 100 µM,,> 100 µM,,,,,,
c1ccc2c3c([nH]c2c1)C1C2CCCCN2C(c2ccncc2)N1CC3 (centres undefined),,> 100 µM,,> 100 µM,,,,67.1 µM,,> 100 µM,,87.3 µM,,> 100 µM,,,,,,
CN(C)c1ccc(C2CC(C)(O)Oc3cc4c(cc32)OCO4)cc1 (centres undefined),,> 100 µM,,50.3 µM,,> 100 µM,,,,,,47.6 µM,,> 100 µM,,> 100 µM,,> 100 µM,,> 100 µM
OCC(O)C(O)C(O)C(O)c1nn[nH]n1 (centres undefined),,> 100 µM,,> 100 µM,,> 100 µM,,,,> 100 µM,,> 100 µM,,,,,,,,
COc1ccc(/C(C)=C(\c2ccc(Cl)cc2)c2ccc(OCCN3CCCCCC3)cc2)cc1F,2.56 µM,5.11 µM,1.62 µM,7.47 µM,2.57 µM,6.62 µM,,,,,3.63 µM,9.92 µM,3.4 µM,7.87 µM,4.47 µM,15.6 µM,3.59 µM,11.1 µM,3.29 µM,6.11 µM
C#Cc1cccc(NC(=O)C2CCCN(C(=O)CCl)C2)c1 (centres undefined),> 82.5 µM,> 82.5 µM,21.5 µM,45 µM,> 82.5 µM,> 82.5 µM,,,,,> 82.5 µM,> 82.5 µM,> 82.5 µM,> 82.5 µM,> 82.5 µM,> 82.5 µM,> 82.5 µM,> 82.5 µM,> 82.5 µM,> 82.5 µM
CCCCC[C@@H](C/C=C/CCC(=O)NC/C(=C/Cl)[C@H]1C(=O)C(C)(C)C(=O)[C@@H](C)[C@@]1(C)O)OC,1.58 µM,16.9 µM,18.5 µM,33.6 µM,19.2 µM,38.2 µM,,,,,6.23 µM,23 µM,18.4 µM,34.3 µM,16.8 µM,31.8 µM,19.2 µM,38.8 µM,16 µM,32.3 µM
Oc1ccccc1C=Nc1nc(OCc2ccccc2)nc2[nH]ncc12,34.8 µM,> 100 µM,22.2 µM,49.6 µM,11.7 µM,43.7 µM,,,,,14.4 µM,43.5 µM,34.2 µM,> 100 µM,33.9 µM,> 100 µM,15.5 µM,35.2 µM,15 µM,37.3 µM
CCN1CCN(c2nc(NNC(=O)c3ccccc3)nc(N3CCN(C(c4ccccc4)c4ccccc4)CC3)n2)CC1,1.82 µM,3.47 µM,1.9 µM,3.83 µM,1.39 µM,3.7 µM,,,,,1.65 µM,4.1 µM,1.9 µM,4.25 µM,8.11 µM,26.5 µM,1.39 µM,3.46 µM,2.7 µM,7.55 µM
CNCc1ccc(-c2[nH]c3cc(F)cc4c3c2CCNC4=O)cc1,19 µM,41.5 µM,11.7 µM,26.4 µM,17.9 µM,> 69.5 µM,,,,,23.7 µM,73.3 µM,17 µM,33.2 µM,16 µM,32.3 µM,8.9 µM,35.5 µM,11.1 µM,33 µM
Cc1nc(-n2nc(-c3ccccc3)cc2-c2ccccc2)sc1C(=O)/C=C/c1ccccc1,,> 100 µM,,> 100 µM,,> 100 µM,,> 100 µM,,,,> 100 µM,,> 100 µM,,,,,,
COc1c(O)c2c3c(c1OC)-c1ccccc1CC3N(S(=O)(=O)c1ccc(C)cc1)CC2 (centres undefined),4.89 µM,> 50 µM,19.2 µM,> 50 µM,1.41 µM,29 µM,,,,,1.51 µM,4.25 µM,1.8 µM,> 50 µM,1.62 µM,6.41 µM,1.65 µM,23.5 µM,2.01 µM,> 50 µM

# Source: PubChem BioAssay (NCI)
